Results: US9233098B2, “Nitrogen-containing fused ring compounds as CRTH2 antagonists” (KBP Biosciences Co., Ltd., priority 2011, dated 2016)
Marks after values point to notes of the source that are not given here.

Key:
CRTH2 receptor = target: T1, CRTH2 receptor (Homo sapiens, UniProt Q9Y5Y4); experiment: Calcium flux FLIPR assay, antagonism against CRTH2 receptor (PGD2 at EC80); type: cell-based; conditions: CHO-K1/CRTH2/Gα15 cells; blocking activation induced by PGD2 at EC80
T1 construct: host or cells: CHO-K1/CRTH2/Gα15
T1 sequence (Q9Y5Y4 1-395): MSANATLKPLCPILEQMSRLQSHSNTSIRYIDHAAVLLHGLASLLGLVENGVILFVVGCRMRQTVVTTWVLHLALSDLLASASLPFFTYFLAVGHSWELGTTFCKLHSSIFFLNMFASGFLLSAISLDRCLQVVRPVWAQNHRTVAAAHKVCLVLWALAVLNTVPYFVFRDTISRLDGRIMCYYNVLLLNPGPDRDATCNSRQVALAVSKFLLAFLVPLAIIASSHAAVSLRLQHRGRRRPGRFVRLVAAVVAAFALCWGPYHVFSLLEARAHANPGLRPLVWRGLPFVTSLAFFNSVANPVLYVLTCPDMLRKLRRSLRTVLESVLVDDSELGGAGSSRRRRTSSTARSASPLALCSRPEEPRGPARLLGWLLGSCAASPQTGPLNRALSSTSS
Method: Test procedure The test was performed by Nanjing GenScript Biotech Ltd. by calcium flux assay. Test procedure and results are as follows:
Material for test was weighed accurately, and DMSO was added to dissolve the material for test, mixed and homogenized sufficiently, and formulated to 50 mM. And then, it was diluted to 50 μM by using 20 mM HEPES (hydroxyethylpiperazine ethanesulfonic acid) buffer solution at pH 7.4, and the maximum concentration of the compound was 10000 nM. It was further diluted by 3 folds as a series, and consecutively diluted to 10 concentrations, to reserve.
FLIPR Assay (Real Time Fluorescence Imaging Analysis)
In a 384 black microwell plate, 20 μl of cell solution containing 20000 CHO-K1/CRTH2/Gα15 was added, and was incubated at 37° C., 5% CO2 for 18 h. Then, 20 μl of stain in the FLIPR® Calcium 4 assay kit (kit) was added, and 10 μl of compound solution was added. Then, it was incubated at 37° C. for 60 min, and was incubated at room temperature for 15 min. Within 20 seconds, PGD2 HEPES buffer solution of an agonist PGD2 (prostaglandin D2) at the concentration of EC80 was added, and the values of fluorescence of 21-120 seconds were detected.
Data Processing ΔRFU(Relative fluorescence intensity)=maximum fluorescence value of 21-120 seconds−average value of fluorescence value of 1-20 seconds. Inhibition ratio={1−(ΔRFUcompound−ΔRFUbackground)/(ΔRFUagonists control−ΔRFUbackground)}×100 IC50 values of the compounds (i.e. the concentration of the compound for test needed for blocking 50% of the activation of CRTH2 receptor induced by PGD2 at the concentration of EC80) were calculated based on the inhibition ratios. Test Results and Conclusions

[1] = tested on: OVA induced BALB/c mice asthma model; experiment: OVA induced mice asthma model, cell count of pulmonary alveoli irrigating solution (oral administration); type: in vivo; conditions: 30 mg/kg oral bid, Mean ± SEM
Method: Test procedure and results are as follows:
After acclimation, female BALB/c mice were divided into a blank control group, a model group and an administration group based on body weight randomly. Animal groups, dosage of administration and volume of administration were as detailed in Table 2. The model group and the administration group were intraperitoneally injected with OVA (ovalbumin) solution (containing […] and 2 mg potassium aluminium sulfate) 0.1 mL/animal to allergize on days 1, 14, the blank control group was injected with PBS (phosphate buffer solution). On days 28, 29, 30, 1% OVA was atomized and inhaled continuously to activate for 30 min, for the blank control group replaced with PBS. On days 27, 28, 29, 30, 31, the animals were administered orally with the pharmaceutical and the solvent. The blank control group was administered with the solvent 2 times every day, 1 h before inhalation of PBS and 7 h after the inhalation; the model group was administered with the solvent 2 times every day, 1 h before the inhalation of OVA for activation and 7 h after activation; the administration group was administered with the pharmaceutical 2 times every day, 1 h before the inhalation of OVA for activation and 7 h after activation. On day 32, the animals were executed, immediately irrigated the lung with 0.5 mL PBS (containing 1% FBS) via bronchus, and the irrigation was repeated 2 times. The irrigating solutions were combined, centrifugated, and the cells were resuspended with 1.5 mL PBS (containing 1% FBS). Cell count of bronchus pulmonary alveoli irrigating solution.

| IC50 (CRTH2 receptor) [nM] | Compound | also measured |
| --- | --- | --- |
| 2.3 | Cc1c(Cc2ccc(NC(=O)c3ccc4ccccc4c3)cc2)c2ccccc2n1CC(=O)O [Compound 2, 2-[3-[4-(2-naphthamido)benzyl]-2-methyl-1H-indol-1-yl]acetic acid] |  |
| 2.6 | Cc1c(CC(=O)O)c2ccccc2n1Cc1ccc(NC(=O)c2ccc3ccccc3c2)cc1 [Compound 1, 2-[1-[4-(2-naphthamido)benzyl]-2-methyl-1H-indol-3-yl]acetic acid] |  |
| 4.42 | O=C(O)Cc1nn(Cc2ccc(NC(=O)c3ccc4cc(F)ccc4c3)cc2)c2ccccc12 [Compound 13, 2-[1-[4-(6-fluoro-2-naphthamido)benzyl]-1H-indazol-3-yl]acetic acid] |  |
| 14.9 | O=C(O)Cc1nn(Cc2ccc(NC(=O)c3ccc4ccccc4c3)cc2)c2cc(F)ccc12 [Compound 12, 2-[1-[4-(2-naphthamido)benzyl]-6-fluoro-1H-indazol-3-yl]acetic acid] |  |
| 1.19 | O=C(O)Cc1nn(Cc2ccc(NC(=O)c3ccc4ccccc4c3)cc2)c2ccc(F)cc12 [Compound 11, 2-[1-[4-(2-naphthamido)benzyl]-5-fluoro-1H-indazol-3-yl]acetic acid] |  |
| 6.2 | Cc1c(Cc2ccc(NC(=O)c3ccc(C(F)(F)F)cc3)cc2)c2ccccc2n1CC(=O)O [Compound 3, 2-[2-methyl-3-[4-[4-(trifluoromethyl)benzamido]benzyl]-1H-indol-1-yl]acetic acid] |  |
| 7 | CCc1c(Cc2ccc(NC(=O)c3ccc4ccccc4c3)cc2)c2ccccc2n1CC(=O)O [Compound 7, 2-[3-[4-(2-naphthamido)benzyl]-2-ethyl-1H-indol-1-yl]acetic acid] |  |
| 3.6 | O=C(O)Cc1nn(Cc2ccc(NC(=O)c3ccc4ccccc4c3)cc2)c2ccccc12 [Compound 9, 2-[1-[4-(2-naphthamido)benzyl]-1H-indazol-3-yl]acetic acid] | Acidophilic Cell [1]: 35.26 ± 4.53** *10^4/mL; Lymphocytes [1]: 1.33 ± 0.23 *10^4/mL; Macrophages [1]: 55.38 ± 5.1** *10^4/mL; Neutrophilic Granulocyte [1]: 6.66 ± 1.87* *10^4/mL; Total White Cell Count [1]: 98.63 ± 4.53** *10^4/mL |
| 2.3 | O=C(O)Cn1nc(Cc2ccc(NC(=O)c3ccc4ccccc4c3)cc2)c2ccccc21 [Compound 5, 2-[3-(4-(2-naphthamido)benzyl)-1H-indazol-1-yl]acetic acid] |  |
| 9.7 | O=C(O)Cn1nc(Cc2ccc(NC(=O)c3ccc(Cl)cc3)cc2)c2ccccc21 [Compound 8, 2-[3-[4-(4-chlorobenzamido)benzyl]-1H-indazol-1-yl]acetic acid] |  |
| 5.7 | O=C(O)Cc1nn(Cc2ccc(NC(=O)c3ccc4ccccc4c3)cc2)c2ncccc12 [Compound 23, 2-[1-[4-(2-naphthamido)benzyl]-1H-pyrazolo[3,4-b]pyridin-3-yl]acetic acid] |  |
| 0.5 | Cc1c(Cc2ccc(NC(=O)c3ccc(Cl)cc3)cc2)c2ccccc2n1CC(=O)O [Compound 6, 2-[3-[4-(4-chlorobenzamido)benzyl]-2-methyl-1H-indol-1-yl]acetic acid] |  |
| 2.7 | Cc1c(Cc2ccc(NC(=O)c3ccc(Cl)c(Cl)c3)cc2)c2ccccc2n1CC(=O)O [Compound 4, 2-[3-[4-(3,4-dichlorobenzamido)benzyl]-2-methyl-1H-indol-1-yl]acetic acid] |  |
| 7.3 | O=C(O)Cc1nn(Cc2ccc(NC(=O)c3ccc(Cl)cc3)cc2)c2ccccc12 [Compound 10, 2-[1-[4-(4-chlorobenzamido)benzyl]-1H-indazol-3-yl]acetic acid] |  |
| 10300 | O=C(O)CCn1c2c(c3ccccc31)C[C@H](NS(=O)(=O)c1ccc(F)cc1)CC2 [Ramatroban, reference compound] |  |
